How the values were obtained:
ISRE reporter signal = test: ISRE luciferase reporter assay, THP-1 cells co-treated with compound and cGAMP; assay type: cell-based, Human; conditions: THP-1 cells, 20 μM of each compound, co-treated with cGAMP (1 μg/ml), 24 hours
Method: (§1) Human monocytic THP-1 wild-type (WT) and STING knockout (KO) cell lines were obtained from InvivoGen. Cells were cultured in 1×RPMI 1640 medium containing 10% fetal bovine serum (FBS, Hyclone), 2.05 mM L-glutamine (Hyclone) and 1% penicillin (Corning) in a humidified incubator at 37° C. under 5% CO2.
To confirm immune responses, THP-1 cells were placed in 384-well plates (Grenier), and treated with each compound and cGAMP (1 μg/ml), and after 24 hours, ISRE activity was analyzed. QUANTI-Luc assay (InvivoGen) was performed using the cell culture supernatant to confirm the luciferase reporter gene signal. Fluorescent signals were measured using a TECAN micro plate reader SPARK, and the results were normalized to DMSO control.
(§2) THP-1 cells were co-treated with each of 86 indolizine derivatives and a very small amount of cGAMP (1 μg/ml), the immune response of the THP-1 cells was examined by ISRE reporter assay, and the cytotoxicity of co-treatment was also evaluated (Table 1). All results were compared by normalization to the reporter assay results obtained by treatment with cGAMP alone. […] Thus, Compound 42 was used in subsequent experiments.

THP-1 cells = test: Cell viability assay (CellTiter Clo) in THP-1 cells; assay type: cell-based, Human; conditions: THP-1 cells, 20 μM of each compound, co-treated with cGAMP (1 μg/ml)
Method: as §1
Cells were analyzed using CellTiter Clo (CTG, Promega). […] was measured using a TECAN micro plate reader SPARK. Results were normalized to DMSO control.
as §2

SMILES | Normalized RU (relative unit of ISRE reporter signal) (ISRE reporter signal) | Normalized cell viability (THP-1 cells)
CN(C)c1ccc(-c2cc(C(=O)c3ccccc3)n3ccc(C(F)(F)F)cc23)cc1 [Compound 10] | 1.67 | 1.21
CCN(CC)c1ccc(C(=O)c2cc(-c3ccc(C(F)(F)F)cc3)c3ccccn23)cc1 [Compound 56] | 1.40 | 1.23
COc1ccc(-c2cc(C(=O)c3ccc(C(F)(F)F)cc3)n3ccccc23)cc1 [Compound 44] | 0.89 | 1.24
COc1ccc(C(=O)c2cc(-c3ccc(OC)cc3)c3cc(C(C)=O)ccn23)cc1 [Compound 34] | 1.52 | 1.26
CC(=O)c1ccn2c(C(=O)c3ccccc3)cc(-c3ccc(N)cc3)c2c1 [Compound 63] | 2.08 | 0.98
CCCN(CCC)c1ccc(-c2cc(C(=O)c3ccccc3)n3ccc(C(C)=O)cc23)cc1 [Compound 65] | 1.13 | 1.25
O=C(c1ccccc1)c1cc(-c2ccc(C(F)(F)F)cc2)c2cc(C(F)(F)F)ccn12 [Compound 6] | 1.38 | 1.19
O=C(c1ccccc1)c1cc(-c2ccccc2)c2ccccn12 [Compound 48] | 1.37 | 1.18
CC(=O)c1ccn2c(C(=O)c3ccccc3)cc(-c3ccc(C(=O)O)cc3)c2c1 [Compound 66] | 1.16 | 1.32
CC(=O)c1ccc(-c2cc(C(C)=O)n3ccc(C(F)(F)F)cc23)cc1 [Compound 74] | 2.06 | 0.75
CN(C)c1ccc(-c2cc(C(=O)c3ccc(C(F)(F)F)cc3)n3ccc(C(F)(F)F)cc23)cc1 [Compound 5] | 1.58 | 1.05
COc1ccc(C(=O)c2cc(-c3ccc(C(F)(F)F)cc3)c3cc(C(F)(F)F)ccn23)cc1 [Compound 11] | 2.02 | 1.16
COc1ccc(C(=O)c2cc(-c3ccc(C(F)(F)F)cc3)c3cc(C(C)=O)ccn23)cc1 [Compound 31] | 3.42 | 1.33
CCN(CC)c1ccc(-c2cc(C(=O)c3ccccc3)n3ccc(C(C)=O)cc23)cc1 [Compound 64] | 1.13 | 1.24
COc1ccc(C(=O)c2cc(-c3ccc(OC)cc3)c3ccccn23)cc1 [Compound 54] | 1.51 | 1.16
CC(=O)c1ccn2c(C(C)=O)cc(-c3ccc(N(C)C)cc3)c2c1 [Compound 82] | 2.57 | 1.16
CCN(CC)c1ccc(C(=O)c2cc(-c3ccc(OC)cc3)c3cc(C(F)(F)F)ccn23)cc1 [Compound 19] | 1.58 | 1.29
CC(=O)c1cc(-c2ccc(N(C)C)cc2)c2ccccn12 [Compound 87] | 2.59 | 1.30
CC(=O)c1ccn2c(C(=O)c3ccccc3)cc(-c3ccccc3)c2c1 [Compound 28] | 1.69 | 1.13
COc1ccc(C(=O)c2cc(-c3ccc(N(C)C)cc3)c3ccccn23)cc1 [Compound 55] | 1.65 | 1.24
COc1ccc(-c2cc(C(=O)c3ccc(C(F)(F)F)cc3)n3ccc(C(F)(F)F)cc23)cc1 [Compound 4] | 1.33 | 1.05
O=C(c1ccccc1)c1cc(-c2ccncc2)c2ccccn12 [Compound 67] | 2.03 | 1.34
O=C(c1ccccc1)c1cc(-c2ccc(C(F)(F)F)cc2)c2ccccn12 [Compound 46] | 1.08 | 1.25

From US20230390319A1, “INTERFERON GENE STIMULATOR COMPOSITION COMPRISING INDOLIZINE DERIVATIVE AS ACTIVE INGREDIENT” (AJOU UNIVERSITY INDUSTRY-ACADEMIC COOPERATION FOUNDATION, priority 2020, published 2023)
